Reference: US12391737B2, “Soluble NPY2 receptor agonists” (Boehringer Ingelheim International GmbH, priority 2020, dated 2025)

What was measured:
Solubility determination = settings: for Sol6: pH 6; for Sol7: pH 7
Procedure, shortened: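 Sample: TFA-salt peptide at 10 mg/ml target in 0.1 M Na diphosphate, pH 6.4 or 7.0, shaken 2 h RT, filtered, diluted to 1 mg/ml.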

[1] = molecular target: T1, Human Neuropeptide Y2 Receptor (Homo sapiens, UniProt P49146); assay: Radioligand binding competition assay (RLB); settings: Table 3, 125I-PYY(1-36) competition; read-out: Ki
T1 construct: purchased CHEMICON HTS066M
T1 sequence (P49146 1-381): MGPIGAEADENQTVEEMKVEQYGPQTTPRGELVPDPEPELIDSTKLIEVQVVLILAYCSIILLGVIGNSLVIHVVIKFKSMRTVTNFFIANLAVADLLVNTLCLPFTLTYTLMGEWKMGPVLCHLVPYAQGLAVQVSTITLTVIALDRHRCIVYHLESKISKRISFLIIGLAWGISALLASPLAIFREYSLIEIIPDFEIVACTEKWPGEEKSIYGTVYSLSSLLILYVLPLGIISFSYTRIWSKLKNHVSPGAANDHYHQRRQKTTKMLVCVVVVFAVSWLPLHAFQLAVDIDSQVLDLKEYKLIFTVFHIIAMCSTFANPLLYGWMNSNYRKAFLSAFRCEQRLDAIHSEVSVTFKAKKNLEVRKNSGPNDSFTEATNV
Procedure, shortened: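 Competition binding used membranes expressing the receptor (0.5 μg protein/well) in 50 mM HEPES, 5 mM MgCl2, 1 mM CaCl2, pH 7.4 with 0.2% ovalbumin, incubated 2 h at room temperature with shaking. Bound radioligand was collected by filtration onto PEI-soaked GF/C filters and counted; IC50 from nonlinear sigmoidal fits.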

Row | Structure (SMILES) | Sol6 (Solubility determination) [mg/mL] | Sol7 (Solubility determination) [mg/mL] | Ki [1] [nM]
1 | CC(C)CC(=O)N[C@@H](C)C(=O)N1CCC[C@H]1C(=O)N[C@@H](CCC(=O)O)C(=O)N[C@@H](CCCCNC(=O)CCCCCNC(=O)CC[C@H](NC(=O)CCCCCCCCCCCCCCCCC(=O)O)C(=O)O)C(=O)N1CCC[C@H]1C(=O)N[C@@H](CCC(=O)O)C(=O)N[C@@H](CCC(=O)O)C(=O)N[C@@H](CC(=O)O)C(=O)N[C@@H](CO)C(=O)N[C@H](C(=O)N1CCC[C@H]1C(=O)N[C@@H](CCC(=O)O)C(=O)N[C@@H](CCC(=O)O)C(=O)N[C@@H](CC(C)C)C(=O)N[C@@H](CCC(N)=O)C(=O)N[C@@H](CCCNC(=N)N)C(=O)N[C@@H](Cc1ccc(O)cc1)C(=O)N[C@@H](Cc1ccc(O)cc1)C(=O)N[C@H](C(=O)N[C@@H](CO)C(=O)N[C@@H](CC(C)C)C(=O)N[C@@H](CCCNC(=N)N)C(=O)N[C@@H](Cc1c[nH]cn1)C(=O)N[C@@H](Cc1ccc(O)cc1)C(=O)N[C@@H](Cc1ccc(O)cc1)C(=O)N[C@@H](CC(N)=O)C(=O)N[C@@H](Cc1c[nH]c2ccccc12)C(=O)N[C@@H](CC(C)C)C(=O)N[C@H](C(=O)N[C@@H](CCCNC(=N)N)C(=O)N[C@@H](CCC(N)=O)C(=O)N[C@@H](CCCNC(=N)N)C(=O)N[C@@H](Cc1ccc(O)cc1)C(N)=O)[C@@H](C)O)C(C)C)[C@@H](C)O [Compound 143, N{alpha-4}-(3-methylbutanoyl)-N{epsilon-7}-(6-[(4S)-4-carboxy-4-(17-carboxyheptadecanamido)butanamido]hexanoyl)-[4A,7K,9E,12S,13T,18Q,22V,28Y,30W,31L]-hPYY(4-36)] | 10.0 | >10.0 | 3.42
2 | CC(C)CC(=O)N[C@@H](C)C(=O)N1CCC[C@H]1C(=O)N[C@@H](CCC(=O)O)C(=O)N[C@@H](CCCCNC(=O)CCCCCNC(=O)CC[C@H](NC(=O)CCCCCCCCCCCCCCCCC(=O)O)C(=O)O)C(=O)N1CCC[C@H]1C(=O)N[C@@H](CCC(=O)O)C(=O)N[C@@H](CCC(=O)O)C(=O)N[C@@H](CC(=O)O)C(=O)N[C@@H](CCC(N)=O)C(=O)N[C@H](C(=O)N1CCC[C@H]1C(=O)N[C@@H](CCC(=O)O)C(=O)N[C@@H](CCC(=O)O)C(=O)N[C@@H](CC(C)C)C(=O)N[C@@H](CCC(N)=O)C(=O)N[C@@H](CCCNC(=N)N)C(=O)N[C@@H](Cc1ccc(O)cc1)C(=O)N[C@@H](Cc1ccc(O)cc1)C(=O)N[C@H](C(=O)N[C@@H](CO)C(=O)N[C@@H](CC(C)C)C(=O)N[C@@H](CCCNC(=N)N)C(=O)N[C@@H](Cc1c[nH]cn1)C(=O)N[C@@H](Cc1ccc(O)cc1)C(=O)N[C@@H](Cc1ccc(O)cc1)C(=O)N[C@@H](CC(N)=O)C(=O)N[C@@H](Cc1c[nH]c2ccccc12)C(=O)N[C@@H](CC(C)C)C(=O)N[C@H](C(=O)N[C@@H](CCCNC(=N)N)C(=O)N[C@@H](CCC(N)=O)C(=O)N[C@@H](CCCNC(=N)N)C(=O)N[C@@H](Cc1ccc(O)cc1)C(N)=O)[C@@H](C)O)C(C)C)[C@@H](C)O [Compound 144, N{alpha-4}-(3-methylbutanoyl)-N{epsilon-7}-(6-[(4S)-4-carboxy-4-(17-carboxyheptadecanamido)butanamido]hexanoyl)-[4A,7K,9E,12Q,13T,18Q,22V,28Y,30W,31L]-hPYY(4-36)] | 9.7 | 9.6 | 9.76
3 | CC(C)CC(=O)N[C@@H](C)C(=O)N1CCC[C@H]1C(=O)N[C@@H](CCC(=O)O)C(=O)N[C@@H](CCCCNC(=O)CCCCCNC(=O)CC[C@H](NC(=O)CCCCCCCCCCCCCCCCC(=O)O)C(=O)O)C(=O)N1CCC[C@H]1C(=O)N[C@@H](CCC(=O)O)C(=O)N[C@@H](CCC(=O)O)C(=O)N[C@@H](CC(=O)O)C(=O)N[C@@H](C)C(=O)N[C@H](C(=O)N1CCC[C@H]1C(=O)N[C@@H](CCC(=O)O)C(=O)N[C@@H](CCC(=O)O)C(=O)N[C@@H](CC(C)C)C(=O)N[C@@H](CCC(N)=O)C(=O)N[C@@H](CCCNC(=N)N)C(=O)N[C@@H](Cc1ccc(O)cc1)C(=O)N[C@@H](Cc1ccc(O)cc1)C(=O)N[C@H](C(=O)N[C@H](C(=O)N[C@@H](CC(C)C)C(=O)N[C@@H](CCCNC(=N)N)C(=O)N[C@@H](Cc1c[nH]cn1)C(=O)N[C@@H](Cc1ccc(O)cc1)C(=O)N[C@@H](Cc1ccc(O)cc1)C(=O)N[C@@H](CC(N)=O)C(=O)N[C@@H](Cc1c[nH]c2ccccc12)C(=O)N[C@@H](CC(C)C)C(=O)N[C@H](C(=O)N[C@@H](CCCNC(=N)N)C(=O)N[C@@H](CCC(N)=O)C(=O)N[C@@H](CCCNC(=N)N)C(=O)N[C@@H](Cc1ccc(O)cc1)C(N)=O)[C@@H](C)O)[C@@H](C)O)C(C)C)[C@@H](C)O [Compound 148, N{alpha-4}-(3-methylbutanoyl)-N{epsilon-7}-(6-[(4S)-4-carboxy-4-(17-carboxyheptadecanamido)butanamido]hexanoyl)-[4A,7K,9E,13T,18Q,22V,23T,28Y,30W,31L]-hPYY(4-36)] | 9.7 | 10.0 | 2.85
4 | CC(C)CC(=O)N[C@@H](C)C(=O)N1CCC[C@H]1C(=O)N[C@@H](C)C(=O)N[C@@H](CCCCNC(=O)CCCCCNC(=O)CC[C@H](NC(=O)CCCCCCCCCCCCCCCCC(=O)O)C(=O)O)C(=O)N1CCC[C@H]1C(=O)N[C@@H](CCC(=O)O)C(=O)N[C@@H](CCC(=O)O)C(=O)N[C@@H](CC(=O)O)C(=O)N[C@@H](C)C(=O)N[C@@H](CO)C(=O)N1CCC[C@H]1C(=O)N[C@@H](CCC(=O)O)C(=O)N[C@@H](CCC(=O)O)C(=O)N[C@@H](CO)C(=O)N[C@@H](CCC(N)=O)C(=O)N[C@@H](CCCNC(=N)N)C(=O)N[C@@H](Cc1ccc(O)cc1)C(=O)N[C@@H](Cc1ccc(O)cc1)C(=O)N[C@H](C(=O)N[C@@H](CO)C(=O)N[C@@H](CC(C)C)C(=O)N[C@@H](CCCNC(=N)N)C(=O)N[C@@H](Cc1c[nH]cn1)C(=O)N[C@@H](Cc1ccc(O)cc1)C(=O)N[C@@H](Cc1ccc(O)cc1)C(=O)N[C@@H](CC(N)=O)C(=O)N[C@@H](Cc1c[nH]c2ccccc12)C(=O)N[C@@H](CC(C)C)C(=O)N[C@H](C(=O)N[C@@H](CCCNC(=N)N)C(=O)N[C@@H](CCC(N)=O)C(=O)N[C@@H](CCCNC(=N)N)C(=O)N[C@@H](Cc1ccc(O)cc1)C(N)=O)[C@@H](C)O)C(C)C [Compound 149, N{alpha-4}-(3-methylbutanoyl)-N{epsilon-7}-(6-[(4S)-4-carboxy-4-(17-carboxyheptadecanamido)butanamido]hexanoyl)-[4A,6A,7K,9E,17S,18Q,22V,28Y,30W,31L]-hPYY(4-36)] | 8.7 | 10.0 | 3.97
